Results as given in publication PMC10967270, “Intrapulmonary and Systemic Pharmacokinetics of Colistin Following Nebulization of Low-Dose Colistimethate Sodium in Patients with Ventilator-Associated Pneumonia Caused by Carbapenem-Resistant Acinetobacter baumannii” (Antibiotics, 2024).

System: ventilator-associated pneumonia caused by carbapenem-resistant Acinetobacter baumannii
Experiment: Clinical and microbiological outcomes of CMS nebulization
Assay type: in vivo
Conditions: of 20 patients
Method: Patients were treated with CMS (Xellia Pharmaceuticals ApS, Copenhagen, Denmark) at a total of 3.75 MIU (equivalent to 300 mg of CMS or 112.5 mg of CBA) administered four times a day at 6 h intervals. CMS was dissolved in 5 mL of normal saline and administered over 30 min through a jet nebulizer (Sileo 54, Macjin Medical, Seoul, Republic of Korea) connected to the ventilator circuit. Bronchoalveolar lavage fluid (BALF) was obtained by instilling 20 mL of normal saline into the right middle lobe or left lingular segmental bronchus using a bronchoscope, followed by immediate aspiration and collection into a syringe. Samples were collected immediately before the nebulization treatment and at 1, 3, and 5 h after the start of the treatment. Blood samples were collected before the nebulization treatment and at 1, 2, 3, and 5 h thereafter. Both BALF and blood samples were centrifuged at 3000× g for 10 min within 1 h of collection and the supernatant was isolated. Samples were then stored in a refrigerator at a temperature below −70 °C.
Clinical outcomes were classified as cured (resolution of symptoms/signs of pneumonia plus improvement or lack of progression in radiologic pulmonary infiltrates, and antibiotics-free), improved (significant improvement of symptoms/signs of pneumonia plus improvement or lack of progression in radiologic abnormalities, but remaining on antibiotic treatment), and failed (persistent or worsening of symptoms/signs of pneumonia, persistent or progression of radiologic pulmonary infiltrates that required additional antibiotic therapy, or death).

## Colistimethate sodium [CMS]
Nebulized CMS 3.75 MIU/day
  Clinical outcomes: failed, number of patients: 4
  Microbiologic outcomes: eradication, number of patients: 8
  Microbiologic outcomes: indeterminate, number of patients: 2
  Microbiologic outcomes: persistence, number of patients: 10
  Survival: no, number of patients: 15
  Survival: yes, number of patients: 5
Nebulized CMS 3.75 MIU/day in four doses at 6 h intervals
  Clinical outcomes: cured, number of patients: 16
